Test results reported in US20240270762A1, “PENICILLIN-BINDING PROTEIN INHIBITORS” (priority 2021, published 2024).
≈ marks a conversion by molar mass, not a printed value.

Tests used:
[1] = target: T1, PBP2 from Neisseria gonorrhoeae (FA19) (Neisseria gonorrhoeae, UniProt P08149); assay: Bocillin-FL fluorescence polarization competition binding, N. gonorrhoeae PBP2; conditions: fluorescence polarization competition binding assay using Bocillin-FL, read-out: N. gonorrhoeae PBP2 Potency
T1 construct: made in house
Outline: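 Fluorescence polarization competition with 0.1 μM Bocillin-FL (fluorescent penicillin V) against 0.25 μM N. gonorrhoeae FA19 PBP2 in 50 mM Hepes pH 8.0, 300 mM NaCl, 10% glycerol. Boronic acid inhibitors were preincubated with PBP, then Bocillin-FL was added and FP read (490/520 nm) up to 60 min. EC50 is the concentration halving PBP-bound Bocillin-FL.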

N. gonorrhoeae MS11 = assay: Liquid broth MIC in Fastidious broth; conditions: Neisseria gonorrhoeae, MS11, read-out: Minimum Inhibitory Concentration (MIC), N. gonorrhoeae MS11
[2] = test system: P. aeruginosa (ΔmexAB-oprM); assay: Broth microdilution MIC in CAMHB; format: cell-based; conditions: Pseudomonas aeruginosa; read-out: MIC P. aeruginosa ΔmexAB-oprM
E. coli D22 = assay: microbe, parasite or virus in culture; format: cell-based; conditions: Escherichia coli, D22, read-out: MIC E. coli D22
N. gonorrhoeae WHO M = assay: Liquid broth MIC in Fastidious broth; conditions: Neisseria gonorrhoeae, read-out: Minimum Inhibitory Concentration (MIC), N. gonorrhoeae WHO M
N. gonorrhoeae WHO G = assay: Liquid broth MIC in Fastidious broth; conditions: Neisseria gonorrhoeae, read-out: Minimum Inhibitory Concentration (MIC), N. gonorrhoeae WHO G

T1 sequence (P08149 whole entry): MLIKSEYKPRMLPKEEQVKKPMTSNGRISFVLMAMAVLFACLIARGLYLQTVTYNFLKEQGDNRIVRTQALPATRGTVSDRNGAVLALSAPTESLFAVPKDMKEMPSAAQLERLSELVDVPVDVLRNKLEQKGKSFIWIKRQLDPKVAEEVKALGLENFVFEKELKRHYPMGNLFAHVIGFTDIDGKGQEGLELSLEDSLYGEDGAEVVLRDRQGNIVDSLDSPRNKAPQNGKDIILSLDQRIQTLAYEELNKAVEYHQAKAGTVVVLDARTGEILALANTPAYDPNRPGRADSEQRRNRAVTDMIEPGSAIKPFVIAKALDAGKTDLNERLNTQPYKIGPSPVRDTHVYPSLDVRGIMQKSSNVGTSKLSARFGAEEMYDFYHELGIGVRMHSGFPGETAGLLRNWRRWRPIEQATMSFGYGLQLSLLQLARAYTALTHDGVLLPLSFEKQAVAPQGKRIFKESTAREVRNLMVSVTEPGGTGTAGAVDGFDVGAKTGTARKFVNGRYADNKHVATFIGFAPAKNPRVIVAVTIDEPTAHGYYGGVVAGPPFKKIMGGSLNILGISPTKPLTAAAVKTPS

SMILES | EC50 [1] | MIC (N. gonorrhoeae MS11) | MIC [2] | MIC (E. coli D22) | MIC (N. gonorrhoeae WHO M) | MIC (N. gonorrhoeae WHO G)
CCC(=O)NC(C(=O)N[C@H]1Cc2cccc(C(=O)O)c2OB1O)c1ccc(P(=O)(O)O)cc1 (stereo partly drawn) [Example 27, (3R)-2-hydroxy-3-(2-(4-phosphonophenyl)-2-propionamidoacetamido)-3,4-dihydro-2H-benzo[e][1,2]oxaborinine-8-carboxylic acid] | 10 to 50 µM | 16 to 32 µg/mL (≈ 33.6 to 67.2 µM) | > 128 µg/mL | 32 to 64 µg/mL (≈ 67.2 to 134 µM) | 4 to 8 µg/mL (≈ 8.4 to 16.8 µM) | 4 to 8 µg/mL (≈ 8.4 to 16.8 µM)
CC(C)C(=O)NC(C(=O)N[C@H]1Cc2cccc(C(=O)O)c2OB1O)c1ccc(P(=O)(O)O)cc1 (stereo partly drawn) [Example 28, (3R)-2-hydroxy-3-(2-isobutyramido-2-(4-phosphonophenyl)acetamido)-3,4-dihydro-2H-benzo[e][1,2]oxaborinine-8-carboxylic acid] | < 10 µM | 16 to 32 µg/mL (≈ 32.6 to 65.3 µM) | > 128 µg/mL | 32 to 64 µg/mL (≈ 65.3 to 131 µM) | 4 to 8 µg/mL (≈ 8.16 to 16.3 µM) | 4 to 8 µg/mL (≈ 8.16 to 16.3 µM)
CC(C)(C)C(=O)NC(C(=O)N[C@H]1Cc2cccc(C(=O)O)c2OB1O)c1ccc(P(=O)(O)O)cc1 (stereo partly drawn) [Example 29, (3R)-2-hydroxy-3-(2-(4-phosphonophenyl)-2-pivalamidoacetamido)-3,4-dihydro-2H-benzo[e][1,2]oxaborinine-8-carboxylic acid] | < 10 µM | 16 to 32 µg/mL (≈ 31.7 to 63.5 µM) | 8 to 16 µg/mL (≈ 15.9 to 31.7 µM) | 8 to 16 µg/mL (≈ 15.9 to 31.7 µM) | 4 to 8 µg/mL (≈ 7.93 to 15.9 µM) | 16 to 32 µg/mL (≈ 31.7 to 63.5 µM)
O=C(O)c1cccc2c1OB(O)[C@@H](NC(=O)C(NC(=O)C1CC1)c1ccc(P(=O)(O)O)cc1)C2 (stereo partly drawn) [Example 30, (3R)-3-(2-(cyclopropanecarboxamido)-2-(4-phosphonophenyl)acetamido)-2-hydroxy-3,4-dihydro-2H-benzo[e][1,2]oxaborinine-8-carboxylic acid] | < 10 µM | 16 to 32 µg/mL (≈ 32.8 to 65.5 µM) | > 128 µg/mL | 8 to 16 µg/mL (≈ 16.4 to 32.8 µM) | 4 to 8 µg/mL (≈ 8.19 to 16.4 µM) | 4 to 8 µg/mL (≈ 8.19 to 16.4 µM)
O=C(O)c1cccc2c1OB(O)[C@@H](NC(=O)C(NC(=O)C1CCCCC1)c1ccc(P(=O)(O)O)cc1)C2 (stereo partly drawn) [Example 31, (3R)-3-(2-(cyclohexanecarboxamido)-2-(4-phosphonophenyl)acetamido)-2-hydroxy-3,4-dihydro-2H-benzo[e][1,2]oxaborinine-8-carboxylic acid] | < 10 µM | 16 to 32 µg/mL (≈ 30.2 to 60.3 µM) | > 128 µg/mL | 32 to 64 µg/mL (≈ 60.3 to 121 µM) | 4 to 8 µg/mL (≈ 7.54 to 15.1 µM) | 16 to 32 µg/mL (≈ 30.2 to 60.3 µM)
O=C(NC(C(=O)N[C@H]1Cc2cccc(C(=O)O)c2OB1O)c1ccc(P(=O)(O)O)cc1)c1ccccn1 (stereo partly drawn) [Example 32, (3R)-2-hydroxy-3-(2-(4-phosphonophenyl)-2-(picolinamido)acetamido)-3,4-dihydro-2H-benzo[e][1,2]oxaborinine-8-carboxylic acid] | < 10 µM | 1 to 2 µg/mL (≈ 1.9 to 3.81 µM) | 32 to 64 µg/mL (≈ 60.9 to 122 µM) | 8 to 16 µg/mL (≈ 15.2 to 30.5 µM) | < 1 µg/mL | < 1 µg/mL
CC(=O)N1CCC[C@@H]1C(=O)N[C@H](C(=O)N[C@H]1Cc2cccc(C(=O)O)c2OB1O)c1ccc(P(=O)(O)O)cc1 [Example 33, (3R)-3-(2-((R)-1-acetylpyrrolidine-2-carboxamido)-2-(4-phosphonophenyl)acetamido)-2-hydroxy-3,4-dihydro-2H-benzo[e][1,2]oxaborinine-8-carboxylic acid] | < 10 µM | 16 to 32 µg/mL (≈ 28.6 to 57.2 µM) | > 128 µg/mL | 32 to 64 µg/mL (≈ 57.2 to 114 µM) | 4 to 8 µg/mL (≈ 7.15 to 14.3 µM) | 16 to 32 µg/mL (≈ 28.6 to 57.2 µM)
CS(=O)(=O)N1CCC[C@@H]1C(=O)N[C@H](C(=O)N[C@H]1Cc2cccc(C(=O)O)c2OB1O)c1ccc(P(=O)(O)O)cc1 [Example 34, (R)-2-hydroxy-3-((S)-2-((R)-1-(methylsulfonyl)pyrrolidine-2-carboxamido)-2-(4-phosphonophenyl)acetamido)-3,4-dihydro-2H-benzo[e][1,2]oxaborinine-8-carboxylic acid] | 50 to 250 µM | 16 to 32 µg/mL (≈ 26.9 to 53.8 µM) | > 128 µg/mL | 32 to 64 µg/mL (≈ 53.8 to 108 µM) | 4 to 8 µg/mL (≈ 6.72 to 13.4 µM) | 4 to 8 µg/mL (≈ 6.72 to 13.4 µM)
CS(=O)(=O)N1CCC[C@@H]1C(=O)N[C@@H](C(=O)N[C@H]1Cc2cccc(C(=O)O)c2OB1O)c1ccc(P(=O)(O)O)cc1 [Example 35, (R)-2-hydroxy-3-((R)-2-((R)-1-(methylsulfonyl)pyrrolidine-2-carboxamido)-2-(4-phosphonophenyl)acetamido)-3,4-dihydro-2H-benzo[e][1,2]oxaborinine-8-carboxylic acid] | < 10 µM | 1 to 2 µg/mL (≈ 1.68 to 3.36 µM) | > 128 µg/mL | 8 to 16 µg/mL (≈ 13.4 to 26.9 µM) | < 1 µg/mL | 1 to 2 µg/mL (≈ 1.68 to 3.36 µM)
O=C(O)c1cccc2c1OB(O)[C@@H](NC(=O)[C@@H](NC(=O)N1CCCCC1=O)c1ccc(P(=O)(O)O)cc1)C2 [Example 36, (R)-2-hydroxy-3-((S)-2-(2-oxopiperidine-1-carboxamido)-2-(4-phosphonophenyl)acetamido)-3,4-dihydro-2H-benzo[39e][1,2]oxaborinine-8-carboxylic acid] | 10 to 50 µM | 16 to 32 µg/mL (≈ 29.3 to 58.7 µM) | > 128 µg/mL | 32 to 64 µg/mL (≈ 58.7 to 117 µM) | 1 to 2 µg/mL (≈ 1.83 to 3.67 µM) | 4 to 8 µg/mL (≈ 7.34 to 14.7 µM)
O=C(O)c1cccc2c1OB(O)[C@@H](NC(=O)[C@H](NC(=O)N1CCCCC1=O)c1ccc(P(=O)(O)O)cc1)C2 [Example 37, (R)-2-hydroxy-3-((R)-2-(2-oxopiperidine-1-carboxamido)-2-(4-phosphonophenyl)acetamido)-3,4-dihydro-2H-benzo[e][1,2]oxaborinine-8-carboxylic acid] | < 10 µM | 1 to 2 µg/mL (≈ 1.83 to 3.67 µM) | 8 to 16 µg/mL (≈ 14.7 to 29.3 µM) | 8 to 16 µg/mL (≈ 14.7 to 29.3 µM) | < 1 µg/mL | < 1 µg/mL
CN1CCCN(C(=O)NC(C(=O)N[C@H]2Cc3cccc(C(=O)O)c3OB2O)c2ccc(P(=O)(O)O)cc2)C1=O (stereo partly drawn) [Example 38, (3R)-2-hydroxy-3-(2-(3-methyl-2-oxohexahydropyrimidine-1-carboxamido)-2-(4-phosphonophenyl)acetamido)-3,4-dihydro-2H-benzo[e][1,2]oxaborinine-8-carboxylic acid] | < 10 µM | 1 to 2 µg/mL (≈ 1.78 to 3.57 µM) | 32 to 64 µg/mL (≈ 57.1 to 114 µM) | 8 to 16 µg/mL (≈ 14.3 to 28.6 µM) | < 1 µg/mL | < 1 µg/mL
O=C(O)c1cccc2c1OB(O)[C@@H](NC(=O)[C@@H](NC(=O)N1CCNC1=O)c1ccc(P(=O)(O)O)cc1)C2 [Example 39, (R)-2-hydroxy-3-((S)-2-(2-oxoimidazolidine-1-carboxamido)-2-(4-phosphonophenyl)acetamido)-3,4-dihydro-2H-benzo[e][1,2]oxaborinine-8-carboxylic acid] | 10 to 50 µM | 1 to 2 µg/mL (≈ 1.88 to 3.76 µM) | > 128 µg/mL | 32 to 64 µg/mL (≈ 60.1 to 120 µM) | < 1 µg/mL | < 1 µg/mL
O=C(O)c1cccc2c1OB(O)[C@@H](NC(=O)[C@H](NC(=O)N1CCNC1=O)c1ccc(P(=O)(O)O)cc1)C2 [Example 40, (R)-2-hydroxy-3-((R)-2-(2-oxoimidazolidine-1-carboxamido)-2-(4-phosphonophenyl)acetamido)-3,4-dihydro-2H-benzo[e][1,2]oxaborinine-8-carboxylic acid] | < 10 µM | < 1 µg/mL | 8 to 16 µg/mL (≈ 15 to 30.1 µM) | 2 to 4 µg/mL (≈ 3.76 to 7.52 µM) | < 1 µg/mL | < 1 µg/mL
CN1CCN(C(=O)NC(C(=O)N[C@H]2Cc3cccc(C(=O)O)c3OB2O)c2ccc(P(=O)(O)O)cc2)C1=O (stereo partly drawn) [Example 41, (3R)-2-hydroxy-3-(2-(3-methyl-2-oxoimidazolidine-1-carboxamido)-2-(4-phosphonophenyl)acetamido)-3,4-dihydro-2H-benzo[e][1,2]oxaborinine-8-carboxylic acid] | < 10 µM | < 1 µg/mL | 8 to 16 µg/mL (≈ 14.6 to 29.3 µM) | 2 to 4 µg/mL (≈ 3.66 to 7.32 µM) | < 1 µg/mL | < 1 µg/mL
CCN1CCN(C(=O)NC(C(=O)N[C@H]2Cc3cccc(C(=O)O)c3OB2O)c2ccc(P(=O)(O)O)cc2)C1=O (stereo partly drawn) [Example 42, (3R)-3-(2-(3-ethyl-2-oxoimidazolidine-1-carboxamido)-2-(4-phosphonophenyl)acetamido)-2-hydroxy-3,4-dihydro-2H-benzo[e][1,2]oxaborinine-8-carboxylic acid] | < 10 µM | < 1 µg/mL | 8 to 16 µg/mL (≈ 14.3 to 28.6 µM) | 2 to 4 µg/mL (≈ 3.57 to 7.14 µM) | < 1 µg/mL | < 1 µg/mL
